Results as given in patent US6350585B1, “Reagent for assay of amylase isozyme activity” (priority 1998, dated 2002).
Blank lines part the entries; values can stand above or below the compound they belong to.

Columns and labels:
Format in all cases: biochemical
[1] = target: T1, S-type amylase (Calibzyme S) (Homo sapiens, UniProt P0DUB6); test: amylase isozyme activity assay with sodium azide as activator, S-type amylase sample; settings: for Change in absorbance, Containing Antibody (Composition C) / Change in absorbance, Without antibody (Composition D) / Relative sensitivity / Percent residual enzyme activity: S-type amylase; for Relative sensitivity: G3CNP at 300 mM = 100; for Percent residual enzyme activity: composition C/D; for percent inhibition of S-type amylase: irrespective of sodium azide concentrations, FIG. 4 and FIG. 5
T1 construct: purchased International Reagents Corporation Calibzyme S
T1 sequence (P0DUB6 16-511): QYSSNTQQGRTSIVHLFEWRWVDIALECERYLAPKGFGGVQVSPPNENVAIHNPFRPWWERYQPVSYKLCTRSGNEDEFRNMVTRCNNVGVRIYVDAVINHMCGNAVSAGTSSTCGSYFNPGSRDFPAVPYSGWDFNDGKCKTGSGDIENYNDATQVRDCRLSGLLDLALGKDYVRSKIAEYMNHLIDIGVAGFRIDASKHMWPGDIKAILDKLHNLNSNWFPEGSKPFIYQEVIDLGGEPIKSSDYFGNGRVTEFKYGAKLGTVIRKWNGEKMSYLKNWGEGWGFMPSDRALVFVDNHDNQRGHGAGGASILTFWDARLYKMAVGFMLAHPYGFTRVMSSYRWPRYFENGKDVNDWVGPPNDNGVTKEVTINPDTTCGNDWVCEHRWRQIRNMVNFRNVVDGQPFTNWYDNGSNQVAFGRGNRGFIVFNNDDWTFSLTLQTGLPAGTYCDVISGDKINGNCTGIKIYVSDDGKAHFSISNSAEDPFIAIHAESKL
Experimental: S-type amylase inhibitory antibody 88E8 (manufactured by Roche Diagnostics K.K.) 20 mg/L
S-type amylase inhibitory antibody 66C7 (manufactured by Roche Diagnostics K.K.) 5 mg/L
(§1) Substrate (GalG2CNP (Example) or G3CNP (Comparative Example)) 2.6 mM
(3) S-type Amylase (Calibzyme S, Manufactured by International Reagents Corporation)
Each of the above-mentioned samples (0.05 mL) was added to respective reagent C and D (3 mL) and the mixtures were left standing at 37° C. for 3 minutes. Then, change in absorbance at 405 nm was assayed and change in absorbance per minute was calculated.
In the Tables, P is the case where P-type amylase was used as the sample, and S is the case where S-type amylase was used. The relative sensitivity of P and S is based on the change in absorbance of G3CNP as 100, wherein sodium azide was 300 mM.
Percent residual enzyme activity and relative sensitivity were calculated by the following formulas.
Percent residual enzyme activity (%)=(change in absorbance of composition C)/(change in absorbance of composition D)×100
Relative sensitivity (%)=(change in absorbance of composition D)/(change in absorbance of Comparative Example wherein sodium azide was 300 mM)×100

S-type amylase = target: T2, S-type amylase (Homo sapiens, UniProt P0DUB6); test: S-type amylase activity assay of serum by subtraction (reagent F minus reagent G); settings: for S-type amylase activity value: change in absorbance with reagent F minus reagent G; for Blank, change in absorbance per minute: distilled water as sample, compositions F and G
T2 construct: Serum (1, 2 or 3); from tissue; host or cells: serum
T2 sequence (P0DUB6 16-511): T1 sequence (P0DUB6 16-511)
Experimental: (§2) Potassium thiocyanate 140 mM
as §1
(§3) S-type amylase inhibitory antibody 88E8 (manufactured by Roche Diagnostics K.K.) 15 mg/L
(§4) S-type amylase inhibitory antibody 66C7 (manufactured by Roche Diagnostics K.K.) 1.25 mg/L
(1) Distilled Water(Blank)
Each of the above-mentioned reagents (0.05 mL) was added to the above reagent F (3 mL) and the mixtures were left standing at 37° C. for 3 minutes. Then, change in absorbance at 405 nm was assayed and change in absorbance per minute was calculated (change in absorbance a). The same procedure was repeated using reagent G and change in absorbance per minute was calculated (change in absorbance b). Then, change in absorbance b was subtracted from change in absorbance a to give change in absorbance c, which was converted to S-type amylase activity value at this composition using the molecular extinction coefficient of CNP.

P-type amylase = target: T3, P-type amylase (Homo sapiens, UniProt P04746); test: P-type amylase activity assay of serum with reagent E; settings: for P-type amylase activity value / Blank, change in absorbance per minute: composition E; for P-type amylase activity value: potassium thiocyanate 140 mM; for Blank, change in absorbance per minute: distilled water as sample
T3 construct: Serum (1, 2 or 3); from tissue; host or cells: serum
T3 sequence (P04746 16-511): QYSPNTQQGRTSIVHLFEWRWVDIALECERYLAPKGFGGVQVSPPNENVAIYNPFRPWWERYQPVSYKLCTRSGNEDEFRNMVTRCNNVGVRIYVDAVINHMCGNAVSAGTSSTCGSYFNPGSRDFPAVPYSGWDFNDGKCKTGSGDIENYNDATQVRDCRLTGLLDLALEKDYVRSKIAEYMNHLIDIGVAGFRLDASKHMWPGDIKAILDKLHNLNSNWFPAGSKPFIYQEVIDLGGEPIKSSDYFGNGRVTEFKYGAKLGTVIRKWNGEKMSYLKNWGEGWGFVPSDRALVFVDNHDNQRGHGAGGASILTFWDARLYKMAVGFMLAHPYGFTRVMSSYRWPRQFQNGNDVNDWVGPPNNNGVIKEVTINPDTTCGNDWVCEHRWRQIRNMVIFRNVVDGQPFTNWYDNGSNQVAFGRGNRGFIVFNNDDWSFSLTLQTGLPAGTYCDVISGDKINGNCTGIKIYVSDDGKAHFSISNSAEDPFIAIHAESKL
Experimental: Good buffer (pH 6.2) 50 mM
as §3, §4, §2, §1
(1) Distilled water (blank)
Each of the above-mentioned reagents (0.05 mL) was added to the above reagent E (3 mL) and the mixtures were left standing at 37° C. for 3 minutes. Then, change in absorbance at 405 nm was assayed and change in absorbance per minute was calculated. The obtained change in absorbance was converted to P-type amylase activity value at this composition using the molecular extinction coefficient of CNP.

Change in absorbance, Containing Antibody (Composition C) ([1]; sodium azide 0 mM): 0.8 mABS/min | Change in absorbance, Without antibody (Composition D) ([1]; sodium azide 0 mM): 14.6 mABS/min | Relative sensitivity ([1]; sodium azide 0 mM): 31.8% | Percent residual enzyme activity ([1]; sodium azide 0 mM): 5.5% | Change in absorbance, Containing Antibody (Composition C) ([1]; sodium azide 30 mM): 1.6 mABS/min | Change in absorbance, Without antibody (Composition D) ([1]; sodium azide 30 mM): 33.2 mABS/min | Relative sensitivity ([1]; sodium azide 30 mM): 72.3% | Percent residual enzyme activity ([1]; sodium azide 30 mM): 4.8% | Change in absorbance, Containing Antibody (Composition C) ([1]; sodium azide 60 mM): 2.0 mABS/min | Change in absorbance, Without antibody (Composition D) ([1]; sodium azide 60 mM): 43.8 mABS/min | Relative sensitivity ([1]; sodium azide 60 mM): 95.4% | Percent residual enzyme activity ([1]; sodium azide 60 mM): 4.6% | Change in absorbance, Containing Antibody (Composition C) ([1]; sodium azide 90 mM): 2.4 mABS/min | Change in absorbance, Without antibody (Composition D) ([1]; sodium azide 90 mM): 49.6 mABS/min | Relative sensitivity ([1]; sodium azide 90 mM): 108.1% | Percent residual enzyme activity ([1]; sodium azide 90 mM): 4.8% | Change in absorbance, Containing Antibody (Composition C) ([1]; sodium azide 120 mM): 2.6 mABS/min | Change in absorbance, Without antibody (Composition D) ([1]; sodium azide 120 mM): 53.1 mABS/min | Relative sensitivity ([1]; sodium azide 120 mM): 115.7% | Percent residual enzyme activity ([1]; sodium azide 120 mM): 4.9% | Change in absorbance, Containing Antibody (Composition C) ([1]; sodium azide 150 mM): 2.4 mABS/min | Change in absorbance, Without antibody (Composition D) ([1]; sodium azide 150 mM): 57.8 mABS/min | Relative sensitivity ([1]; sodium azide 150 mM): 125.9% | Percent residual enzyme activity ([1]; sodium azide 150 mM): 4.2% | Change in absorbance, Containing Antibody (Composition C) ([1]; sodium azide 200 mM): 2.6 mABS/min | Change in absorbance, Without antibody (Composition D) ([1]; sodium azide 200 mM): 61.1 mABS/min | Relative sensitivity ([1]; sodium azide 200 mM): 133.1% | Percent residual enzyme activity ([1]; sodium azide 200 mM): 4.3% | Change in absorbance, Containing Antibody (Composition C) ([1]; sodium azide 250 mM): 2.5 mABS/min | Change in absorbance, Without antibody (Composition D) ([1]; sodium azide 250 mM): 67.3 mABS/min | Relative sensitivity ([1]; sodium azide 250 mM): 146.6% | Percent residual enzyme activity ([1]; sodium azide 250 mM): 3.7% | Change in absorbance, Containing Antibody (Composition C) ([1]; sodium azide 300 mM): 2.6 mABS/min | Change in absorbance, Without antibody (Composition D) ([1]; sodium azide 300 mM): 66.8 mABS/min | Relative sensitivity ([1]; sodium azide 300 mM): 145.5% | Percent residual enzyme activity ([1]; sodium azide 300 mM): 3.9% | percent inhibition of S-type amylase [1]: around 95% | S-type amylase activity value (S-type amylase; Serum 1): 44.8 IU/L | S-type amylase activity value (S-type amylase; Serum 2): 167.7 IU/L | S-type amylase activity value (S-type amylase; Serum 3): 140.7 IU/L | sensitivity (change in absorbance) compared with Comparative Example (S-type amylase; Table 6, serum samples): superior sensitivity | Blank, change in absorbance per minute (S-type amylase): 0.0003 ABS/min | P-type amylase activity value (P-type amylase; Serum 1): 32.3 IU/L | P-type amylase activity value (P-type amylase; Serum 2): 205.0 IU/L | P-type amylase activity value (P-type amylase; Serum 3): 156.8 IU/L | sensitivity (change in absorbance) compared with Comparative Example (P-type amylase; Table 5, serum samples): superior sensitivity | Blank, change in absorbance per minute (P-type amylase): 0.0004 ABS/min
SMILES: O=[N+]([O-])c1ccc(O[C@H]2O[C@H](CO)[C@@H](O[C@H]3O[C@H](CO)[C@@H](O[C@@H]4O[C@H](CO)[C@H](O)[C@H](O)[C@H]4O)[C@H](O)[C@H]3O)[C@H](O)[C@H]2O)c(Cl)c1 [GalG2CNP, 2-chloro-4-nitrophenyl 4-O-β-D-galactopyranosylmaltoside]

Change in absorbance, Containing Antibody (Composition C) ([1]; sodium azide 0 mM): 0.3 mABS/min | Change in absorbance, Without antibody (Composition D) ([1]; sodium azide 0 mM): 4.7 mABS/min | Relative sensitivity ([1]; sodium azide 0 mM): 10.2% | Percent residual enzyme activity ([1]; sodium azide 0 mM): 6.4% | Change in absorbance, Containing Antibody (Composition C) ([1]; sodium azide 30 mM): 0.9 mABS/min | Change in absorbance, Without antibody (Composition D) ([1]; sodium azide 30 mM): 15.7 mABS/min | Relative sensitivity ([1]; sodium azide 30 mM): 34.2% | Percent residual enzyme activity ([1]; sodium azide 30 mM): 5.7% | Change in absorbance, Containing Antibody (Composition C) ([1]; sodium azide 60 mM): 1.0 mABS/min | Change in absorbance, Without antibody (Composition D) ([1]; sodium azide 60 mM): 22.4 mABS/min | Relative sensitivity ([1]; sodium azide 60 mM): 48.8% | Percent residual enzyme activity ([1]; sodium azide 60 mM): 4.5% | Change in absorbance, Containing Antibody (Composition C) ([1]; sodium azide 90 mM): 1.6 mABS/min | Change in absorbance, Without antibody (Composition D) ([1]; sodium azide 90 mM): 28.6 mABS/min | Relative sensitivity ([1]; sodium azide 90 mM): 62.3% | Percent residual enzyme activity ([1]; sodium azide 90 mM): 5.6% | Change in absorbance, Containing Antibody (Composition C) ([1]; sodium azide 120 mM): 1.5 mABS/min | Change in absorbance, Without antibody (Composition D) ([1]; sodium azide 120 mM): 31.0 mABS/min | Relative sensitivity ([1]; sodium azide 120 mM): 67.5% | Percent residual enzyme activity ([1]; sodium azide 120 mM): 4.8% | Change in absorbance, Containing Antibody (Composition C) ([1]; sodium azide 150 mM): 1.6 mABS/min | Change in absorbance, Without antibody (Composition D) ([1]; sodium azide 150 mM): 35.8 mABS/min | Relative sensitivity ([1]; sodium azide 150 mM): 78.0% | Percent residual enzyme activity ([1]; sodium azide 150 mM): 4.5% | Change in absorbance, Containing Antibody (Composition C) ([1]; sodium azide 200 mM): 1.9 mABS/min | Change in absorbance, Without antibody (Composition D) ([1]; sodium azide 200 mM): 41.1 mABS/min | Relative sensitivity ([1]; sodium azide 200 mM): 89.5% | Percent residual enzyme activity ([1]; sodium azide 200 mM): 4.6% | Change in absorbance, Containing Antibody (Composition C) ([1]; sodium azide 250 mM): 2.2 mABS/min | Change in absorbance, Without antibody (Composition D) ([1]; sodium azide 250 mM): 44.5 mABS/min | Relative sensitivity ([1]; sodium azide 250 mM): 96.9% | Percent residual enzyme activity ([1]; sodium azide 250 mM): 4.9% | Change in absorbance, Containing Antibody (Composition C) ([1]; sodium azide 300 mM): 2.3 mABS/min | Change in absorbance, Without antibody (Composition D) ([1]; sodium azide 300 mM): 45.9 mABS/min | Relative sensitivity ([1]; sodium azide 300 mM): 100.0% | Percent residual enzyme activity ([1]; sodium azide 300 mM): 5.0% | percent inhibition of S-type amylase [1]: around 95% | S-type amylase activity value (S-type amylase; Serum 1): 23.4 IU/L | S-type amylase activity value (S-type amylase; Serum 2): 87.5 IU/L | S-type amylase activity value (S-type amylase; Serum 3): 71.9 IU/L | Blank, change in absorbance per minute (S-type amylase): 0.0006 ABS/min | P-type amylase activity value (P-type amylase; Serum 1): 16.8 IU/L | P-type amylase activity value (P-type amylase; Serum 2): 106.3 IU/L | P-type amylase activity value (P-type amylase; Serum 3): 80.9 IU/L | Blank, change in absorbance per minute (P-type amylase): 0.0006 ABS/min
SMILES: O=[N+]([O-])c1ccc(O[C@H]2O[C@H](CO)[C@@H](O[C@H]3O[C@H](CO)[C@@H](O[C@H]4O[C@H](CO)[C@@H](O)[C@H](O)[C@H]4O)[C@H](O)[C@H]3O)[C@H](O)[C@H]2O)c(Cl)c1 [Example G3CNP, 2-chloro-4-nitrophenylmaltotrioside, reference compound]
